Measured values taken from patent US20130085133A1, “ANTI-VIRAL TREATMENT AND ASSAY TO SCREENFOR ANTI-VIRAL AGENT” (Sourthern Research Institute Office of Commercialization …, priority 2010, published 2013).
Like-named read-outs stand apart in the source and are kept apart here.

Columns and labels:
[1] = test system: respiratory syncytial virus (RSV) strain Long; details: EC50 for CPE inhibition, HEp-2 cells, six days, tested range 25 ug/mL to 0.048 ug/mL (Chembridge), 50 uM to 0.097 uM (Enamine, SRI Proprietary)
HEp-2 cells = assay: cytotoxicity assay (percent viability of HEp-2 cells, Cell Titer-Glo); details: cell viability of HEp-2 cells (text: IC50), top concentration 25 ug/mL (Chembridge), 50 uM (Enamine, SRI Proprietary)
Method: (§1) Test compounds were evaluated by measuring their antiviral activity, cell toxicity, and selectivity. Test compounds were serially diluted in a plate to plate matrix or “stacked plate” matrix. All 320 compounds in a source plate were diluted together resulting in a 10 point dose response dilution series. It was visualized as a serial dilution series proceeding vertically through a stack of plates with the high dose plate on top and the low dose plate on the bottom.
(§2) Following the six day incubation period, the assay plates were equilibrated to room temperature for 30 min and an equal volume (30 μL) of Cell Titer-Glo reagent (Promega Inc.) was added to each well using a WellMate (Matrix, Hudson, N.H.) and plates were incubated for an additional 10 min at room temperature. At the end of the incubation, luminescence was measured using a Perkin Elmer Envision™ multi-label reader (PerkinElmer, Wellesley, Mass.) with an integration time of 0.1 s.
(§3) Data was analyzed using ActivityBase software (IDBS, Inc, Guilford, UK). thirty two control wells containing cells only and twenty four wells containing cells and virus were included on each assay plate and used to calculate Z′ value for each plate and to normalize the data on a per plate basis. […] Eight ribavirin positive control wells were included on each plate for quality control purposes, but were not used in Z′ calculations. […] In the toxicity assay, results are described as percent viability and the calculation is the same.
(§4) An EC50 (for CPE inhibition) and IC50 (for cell viability) were calculated for each substance using the 4 parameter Levenburg-Marquardt algorithm with parameter A locked at 0 and parameter B locked at 100. Standard deviation, normalized chi2 and hill slope were used to evaluate the curves. Values were not extrapolated beyond the tested range of concentrations.

RSV, Long strain = assay: virus titer Reduction (VTR) assay, progeny virus TCID50 in HEp-2 cells; type: cell-based, respiratory syncytial virus (RSV); details: human respiratory syncytial virus, 48 h; for log reduction at 3 µg/mL: 3 ug/ml compound, read-out: TCID-50 Reduction @ 3 ug/ml; for log reduction at 6 µg/mL: 6 ug/ml compound, read-out: TCID-50 Reduction 6 @ ug/ml; for log reduction at 12 µg/mL: 12 ug/ml compound, read-out: TCID-50 Reduction 12 @ ug/ml; for log reduction at 25 µg/mL: 25 ug/ml compound, read-out: TCID-50 Reduction 25 @ ug/ml; for log reduction at 5 µg/mL: 5 ug/ml compound, read-out: TCID-50 Reduction @ 5 ug/ml; for log reduction at 50 µg/mL: 50 ug/ml compound, read-out: TCID-50 Reduction @ 50 ug/ml
Method: Four concentrations of each compound were evaluated (Table 3). Briefly, the four concentrations of test compounds, HEp-2 cells (8×10^3 per well) and RSV, Long strain (MOI=0.9) were plated in 96 well microtiter plates. The plates were incubated for 48 hours. Fifteen (15) μl of 10-fold serial dilution of progeny virus containing medium from respective samples (test compound treated or untreated) was transferred to infect fresh HEp-2 cells (2×10^3 cells per well) in a 384 well format. Plates were incubated for an additional 6 days and luminescence was measured using Cell Titer-Glo reagent (Promega Inc.) to determine cell viability. […] A well showing lesser than 50% cell viability was regarded as positive for virus infection. Four replicates for each virus dilution were analyzed and the number of virus positive wells (out of 4) was plotted versus the dilution. TCID50 was calculated to be the dilution that produced two positive wells out of four using ActivityBase software (IDBS, Inc, Guilford, UK).

[2] = test system: respiratory syncytial virus (RSV) strain Long; assay: microbe, parasite or virus in culture; details: human respiratory syncytial virus, HEp-2, 144 h
[3] = cytotoxicity assay (percent viability of HEp-2 cells, Cell Titer-Glo); details: human, HEp-2 cells
Method: as §1, §2, §3, §4

Compound | EC50 ([1]; unit not given) | CC50 (HEp-2 cells; unit not given) | log reduction at 3 µg/mL (RSV, Long strain) | log reduction at 6 µg/mL (RSV, Long strain) | log reduction at 12 µg/mL (RSV, Long strain) | log reduction at 25 µg/mL (RSV, Long strain) | EC50 [2] | CC50 at 6 days [3] | log reduction at 5 µg/mL (RSV, Long strain) | log reduction at 50 µg/mL (RSV, Long strain) | EC50 ([1]; unit inferred) [µM] | CC50 (HEp-2 cells; unit inferred) [µM]
COc1ccc2[nH]c(C(C#N)=Cc3cc4c(cc3Cl)OCO4)nc2c1 [AB00364575] | 17.76 | >25.00 | – | – | – | – | – | – | – | – | – | –
COc1ccccc1CCNC(=O)c1cc2c(s1)CCCC2 [AB00367930] | – | – | 1.82 | 1.04 | 2.68 | 6.4 | 5.77 µg/mL | > 25 µg/mL | – | – | – | –
O=C(Nc1ccc(OC(F)(F)F)cc1)c1ccc2[nH]cnc2c1 [AB00368222] | 12.26 | >25.00 | – | – | – | – | – | – | – | – | – | –
COc1c(C)cccc1C(=O)NCCOc1ccc(Cl)cc1 [AB00368252] | – | – | 1 | 1.3 | 1.72 | 4.94 | 9.43 µg/mL | > 25 µg/mL | – | – | – | –
O=C(Cc1ccc(Br)cc1)Nc1ccccc1C(=O)O [AB00369287] | – | – | 1 | 3.31 | 4.73 | 6.57 | 9.56 µg/mL | > 25 µg/mL | – | – | – | –
c1coc(-c2nn3c(Cn4cnc5ccccc54)nnc3s2)c1 [AB00369924] | – | – | 1 | 2.62 | 3.22 | 2.61 | 1.71 µg/mL | > 25 µg/mL | – | – | – | –
CCOC(=O)C1=C(C)NC(C)=C(C(=O)OCC)C1c1ccc(C#N)cc1 [AB00370331] | – | – | -0.15 | 1.39 | 1.7 | 2.89 | 4.2 µg/mL | > 25 µg/mL | – | – | – | –
CSc1ccccc1C(=O)Nc1ccc(S(=O)(=O)Nc2cccc(Cl)c2Cl)cc1 [AB00370446] | – | – | 1 | 1.32 | 3.21 | 6.57 | 4.37 µg/mL | > 25 µg/mL | – | – | – | –
Cc1ccc2[nH]c(-c3sc4nc(C)ccc4c3N)nc2c1 [AB00372475] | 21.04 | >25.00 | – | – | – | – | – | – | – | – | – | –
CC(C)=CCC1=C(O)C(=O)c2ccccc2C1=O [AB00514453] | – | – | – | – | 3.33 | 4.47 | 7.23 µM | > 50 µM | 0.06 | 4.87 | – | –
CCOC(=O)c1ccc(-n2c(C)cc(C=C(C#N)c3nc4ccccc4[nH]3)c2C)cc1 [AB00709376] | – | – | – | – | – | – | – | – | – | – | 10.8 | > 50
CC(N)=C(C#N)C(=O)CN1C(=O)NC(Cc2c[nH]c3ccccc23)C1=O (stereo not drawn) [AB00722846] | – | – | – | – | – | – | – | – | – | – | 1.74 | > 50
COCC(C)n1c(SC(C)C(=O)Nc2cc([N+](=O)[O-])ccc2Cl)nc2ccccc2c1=O (stereo not drawn) [AB00725538] | – | – | – | – | 4.98 | 5.56 | 6.3 µM | > 50 µM | 2.95 | 5.87 | – | –
CC(=O)c1ccc(NC(=O)C(Cc2c[nH]c3ccccc23)NC(=O)c2cccs2)cc1 (stereo not drawn) [AB00776619] | – | – | – | – | – | – | – | – | – | – | 27.3 | > 50
Cc1nn(-c2ccccc2)c(C)c1C(=O)C(=O)Nc1cccc(Cl)c1 [AB00785138] | – | – | – | – | 4.24 | 4.56 | 7.52 µM | > 50 µM | 1.96 | 3.87 | – | –
CC1CCc2[nH]c3ccc(C(=O)OCC(=O)C(C)(C)C)cc3c2C1 (stereo not drawn) [AB00796257] | – | – | – | – | – | – | – | – | – | – | 24.8 | > 50
COCCn1c(SC(C)C(=O)Nc2cccc(C(F)(F)F)c2)nc2ccccc21 (stereo not drawn) [AB00802246] | – | – | – | – | 3.98 | 4.42 | 9.58 µM | > 50 µM | 2.26 | 5.87 | – | –
CC(=O)Nc1ccc(NC(=O)c2ccc3[nH]c4c(c3c2)CC(C)CC4)cc1 (stereo not drawn) [AB00804772] | – | – | – | – | – | – | – | – | – | – | 43.4 | > 50
Cc1sc(NC(=O)Cc2ccccc2)c(C(=O)O)c1C [AB00877398] | – | – | – | – | – | – | – | – | – | – | 40.1 | > 50
O=c1cnn([C@@H]2O[C@H](CO)[C@@H](O)[C@H]2O)c(=O)[nH]1 [SRI-7958] | – | – | – | – | 5.98 | 5.56 | 2.4 µM | > 50 µM | 3.58 | 5.87 | – | –
CC(=O)Nc1nc(N)nc2ccc(CNc3ccc(C(=O)N[C@H](CCC(=O)O)C(=O)O)cc3)nc12 [SRI-10531] | – | – | – | – | 0.97 | -0.02 | 9.09 µM | > 50 µM | 0.16 | 0.28 | – | –
